Measured values published in US20250345392A1, “ANNEXIN A1 LIQUID PHARMACEUTICAL COMPOSITION” (ResoTher Pharma A/S, priority 2022, published 2025).
Like-named read-outs stand apart in the source and are kept apart here. Ends that are not written are not given here.

Assay: 14-day repeat IV dose toxicity study with toxicokinetic evaluation on Day 1 and 14 in dogs
Format: in vivo, beagle dogs
Conditions: dog; for C0 / AUC(0-inf) / clearance / half-life / Vd: in vivo
Experimental: Peptide 1 in blood samples collected from animals used in the studies (rat and dog) has been measured by an LC-MS/MS method. Analysis of samples collected in the pharmacokinetic study in rats was performed prior to validation of the method. Prior to analysis of samples from the GLP toxicology studies, the method was validated according to GLP to ensure that it is selective, accurate, reproducible, and able to produce reliable results. The method was validated over the range from 0.075 to 25 μg/mL Peptide 1.
In the 14-day intravenous toxicity study in beagle dogs (see study description below), samples were collected from 3 male and 3 female animals per group dosed at 0 (Control), 1, 3 or 10 mg/kg/day at 2, 5, 10, 20 and 40 minutes after dosing on Days 1 and 14. Samples were analysed for levels of Peptide 1.

## AMVSEFLKQAWFIENEEQEYVQTLKSSKGGPGSAVSPYPTFNPSSDV-NH2 [Peptide 1]
From 1 mg/kg to 10 mg/kg
  exposure (C(0) and AUCinf) versus dose: increase proportional to dose level
1 mg/kg, Group 2 (1 mg/kg), range over sexes and Days 1 and 14
  C0: 4580 to 8580 ng/mL
1 mg/kg, Group 2 (1 mg/kg), range over sexes and Days 1 and 14, read-out: AUCinf
  AUC(0-inf): 450 to 620 ng·h/mL
3 mg/kg, Group 3 (3 mg/kg), range over sexes and Days 1 and 14
  C0: 12500 to 20000 ng/mL
3 mg/kg, Group 3 (3 mg/kg), range over sexes and Days 1 and 14, read-out: AUCinf
  AUC(0-inf): 1420 to 1970 ng·h/mL
10 mg/kg, Group 4 (10 mg/kg), range over sexes and Days 1 and 14
  C0: 26400 to 58300 ng/mL
10 mg/kg, Group 4 (10 mg/kg), range over sexes and Days 1 and 14, read-out: AUCinf
  AUC(0-inf): 3930 to 4680 ng·h/mL
All groups, read-out: clearance
  clearance: 27.4 to 42.7 mL/min/kg
All groups, read-out: elimination half-life
  half-life: 4.66 to 6.59 min
iv, 1 mg/kg/day, IV 1.0 mg/kg/day, female, Day 1
  C0: 6990 ng/mL
iv, 1 mg/kg/day, IV 1.0 mg/kg/day, female, Day 1, read-out: AUC0-∞ (converted)
  AUC(0-inf): 537 ng·h/mL
iv, 1 mg/kg/day, IV 1.0 mg/kg/day, female, Day 1, read-out: Cl
  clearance: 33.1 mL/min/kg
iv, 1 mg/kg/day, IV 1.0 mg/kg/day, female, Day 1, read-out: T1/2
  half-life: 4.83 min
iv, 1 mg/kg/day, IV 1.0 mg/kg/day, female, Day 1, read-out: Vz
  Vd: 0.232 L/kg
iv, 1 mg/kg/day, IV 1.0 mg/kg/day, female, Day 14
  C0: 8580 ng/mL
iv, 1 mg/kg/day, IV 1.0 mg/kg/day, female, Day 14, read-out: AUC0-∞ (converted)
  AUC(0-inf): 620 ng·h/mL
iv, 1 mg/kg/day, IV 1.0 mg/kg/day, female, Day 14, read-out: Cl
  clearance: 27.4 mL/min/kg
iv, 1 mg/kg/day, IV 1.0 mg/kg/day, female, Day 14, read-out: T1/2
  half-life: 4.66 min
iv, 1 mg/kg/day, IV 1.0 mg/kg/day, female, Day 14, read-out: Vz
  Vd: 0.183 L/kg
iv, 1 mg/kg/day, IV 1.0 mg/kg/day, male, Day 1
  C0: 4580 ng/mL
iv, 1 mg/kg/day, IV 1.0 mg/kg/day, male, Day 1, read-out: AUC0-∞ (converted)
  AUC(0-inf): 450 ng·h/mL
iv, 1 mg/kg/day, IV 1.0 mg/kg/day, male, Day 1, read-out: Cl
  clearance: 37.1 mL/min/kg
iv, 1 mg/kg/day, IV 1.0 mg/kg/day, male, Day 1, read-out: T1/2
  half-life: 4.68 min
iv, 1 mg/kg/day, IV 1.0 mg/kg/day, male, Day 1, read-out: Vz
  Vd: 0.251 L/kg
iv, 1 mg/kg/day, IV 1.0 mg/kg/day, male, Day 14
  C0: 6590 ng/mL
iv, 1 mg/kg/day, IV 1.0 mg/kg/day, male, Day 14, read-out: AUC0-∞ (converted)
  AUC(0-inf): 550 ng·h/mL
iv, 1 mg/kg/day, IV 1.0 mg/kg/day, male, Day 14, read-out: Cl
  clearance: 31 mL/min/kg
iv, 1 mg/kg/day, IV 1.0 mg/kg/day, male, Day 14, read-out: T1/2
  half-life: 6.59 min
iv, 1 mg/kg/day, IV 1.0 mg/kg/day, male, Day 14, read-out: Vz
  Vd: 0.297 L/kg
iv, 3 mg/kg/day, IV 3.0 mg/kg/day, female, Day 1
  C0: 16100 ng/mL
iv, 3 mg/kg/day, IV 3.0 mg/kg/day, female, Day 1, read-out: AUC0-∞ (converted)
  AUC(0-inf): 1700 ng·h/mL
iv, 3 mg/kg/day, IV 3.0 mg/kg/day, female, Day 1, read-out: Cl
  clearance: 30.1 mL/min/kg
iv, 3 mg/kg/day, IV 3.0 mg/kg/day, female, Day 1, read-out: T1/2
  half-life: 5.7 min
iv, 3 mg/kg/day, IV 3.0 mg/kg/day, female, Day 1, read-out: Vz
  Vd: 0.248 L/kg
iv, 3 mg/kg/day, IV 3.0 mg/kg/day, female, Day 14
  C0: 20000 ng/mL
iv, 3 mg/kg/day, IV 3.0 mg/kg/day, female, Day 14, read-out: AUC0-∞ (converted)
  AUC(0-inf): 1970 ng·h/mL
iv, 3 mg/kg/day, IV 3.0 mg/kg/day, female, Day 14, read-out: Cl
  clearance: 25.9 mL/min/kg
iv, 3 mg/kg/day, IV 3.0 mg/kg/day, female, Day 14, read-out: T1/2
  half-life: 6.13 min
iv, 3 mg/kg/day, IV 3.0 mg/kg/day, female, Day 14, read-out: Vz
  Vd: 0.232 L/kg
iv, 3 mg/kg/day, IV 3.0 mg/kg/day, male, Day 1
  C0: 12500 ng/mL
iv, 3 mg/kg/day, IV 3.0 mg/kg/day, male, Day 1, read-out: AUC0-∞ (converted)
  AUC(0-inf): 1420 ng·h/mL
iv, 3 mg/kg/day, IV 3.0 mg/kg/day, male, Day 1, read-out: Cl
  clearance: 35.9 mL/min/kg
iv, 3 mg/kg/day, IV 3.0 mg/kg/day, male, Day 1, read-out: T1/2
  half-life: 6.01 min
iv, 3 mg/kg/day, IV 3.0 mg/kg/day, male, Day 1, read-out: Vz
  Vd: 0.318 L/kg
iv, 3 mg/kg/day, IV 3.0 mg/kg/day, male, Day 14
  C0: 19900 ng/mL
iv, 3 mg/kg/day, IV 3.0 mg/kg/day, male, Day 14, read-out: AUC0-∞ (converted)
  AUC(0-inf): 1850 ng·h/mL
iv, 3 mg/kg/day, IV 3.0 mg/kg/day, male, Day 14, read-out: Cl
  clearance: 27.4 mL/min/kg
iv, 3 mg/kg/day, IV 3.0 mg/kg/day, male, Day 14, read-out: T1/2
  half-life: 6.05 min
iv, 3 mg/kg/day, IV 3.0 mg/kg/day, male, Day 14, read-out: Vz
  Vd: 0.238 L/kg
iv, 10 mg/kg/day, IV 10 mg/kg/day, female, Day 1
  C0: 53400 ng/mL
iv, 10 mg/kg/day, IV 10 mg/kg/day, female, Day 1, read-out: AUC0-∞ (converted)
  AUC(0-inf): 4550 ng·h/mL
iv, 10 mg/kg/day, IV 10 mg/kg/day, female, Day 1, read-out: Cl
  clearance: 37.1 mL/min/kg
iv, 10 mg/kg/day, IV 10 mg/kg/day, female, Day 1, read-out: T1/2
  half-life: 5.41 min
iv, 10 mg/kg/day, IV 10 mg/kg/day, female, Day 1, read-out: Vz
  Vd: 0.288 L/kg
iv, 10 mg/kg/day, IV 10 mg/kg/day, female, Day 14
  C0: 58300 ng/mL
iv, 10 mg/kg/day, IV 10 mg/kg/day, female, Day 14, read-out: AUC0-∞ (converted)
  AUC(0-inf): 4570 ng·h/mL
iv, 10 mg/kg/day, IV 10 mg/kg/day, female, Day 14, read-out: Cl
  clearance: 36.7 mL/min/kg
iv, 10 mg/kg/day, IV 10 mg/kg/day, female, Day 14, read-out: T1/2
  half-life: 5.9 min
iv, 10 mg/kg/day, IV 10 mg/kg/day, female, Day 14, read-out: Vz
  Vd: 0.312 L/kg
iv, 10 mg/kg/day, IV 10 mg/kg/day, male, Day 1
  C0: 26400 ng/mL
iv, 10 mg/kg/day, IV 10 mg/kg/day, male, Day 1, read-out: AUC0-∞ (converted)
  AUC(0-inf): 3930 ng·h/mL
iv, 10 mg/kg/day, IV 10 mg/kg/day, male, Day 1, read-out: Cl
  clearance: 42.7 mL/min/kg
iv, 10 mg/kg/day, IV 10 mg/kg/day, male, Day 1, read-out: T1/2
  half-life: 5.09 min
iv, 10 mg/kg/day, IV 10 mg/kg/day, male, Day 1, read-out: Vz
  Vd: 0.318 L/kg
iv, 10 mg/kg/day, IV 10 mg/kg/day, male, Day 14
  C0: 51400 ng/mL
iv, 10 mg/kg/day, IV 10 mg/kg/day, male, Day 14, read-out: AUC0-∞ (converted)
  AUC(0-inf): 4680 ng·h/mL
iv, 10 mg/kg/day, IV 10 mg/kg/day, male, Day 14, read-out: Cl
  clearance: 36.6 mL/min/kg
iv, 10 mg/kg/day, IV 10 mg/kg/day, male, Day 14, read-out: T1/2
  half-life: 6 min
iv, 10 mg/kg/day, IV 10 mg/kg/day, male, Day 14, read-out: Vz
  Vd: 0.316 L/kg
